The record followed here is ChEMBL document CHEMBL1156232, “Non-classical antifolates. Part 2: synthesis, biological evaluation, and molecular modeling study of some new 2,6-substituted-quinazolin-4-ones” (Bioorg Med Chem, 2010).

The source made the active and inactive calls. No cut-off for these calls is given here.

The subject of one assay is Staphylococcus aureus. The assay is described as follows: Antibacterial activity against Staphylococcus aureus at 200 ug/disk after 24 hrs by disk diffusion method. Type of assay: functional. (A growth-free zone around the sample is the usual read-out of agar diffusion tests.)
For assay [1], the target named is T1, Dihydrofolate reductase (Homo sapiens, UniProt P00374).
T1 sequence (P00374 whole entry): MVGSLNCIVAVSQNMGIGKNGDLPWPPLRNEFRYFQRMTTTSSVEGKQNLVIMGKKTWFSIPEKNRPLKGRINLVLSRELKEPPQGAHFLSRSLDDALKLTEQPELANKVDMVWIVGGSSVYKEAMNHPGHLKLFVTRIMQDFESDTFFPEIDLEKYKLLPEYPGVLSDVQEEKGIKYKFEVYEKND
Description: Inhibition of human DHFR after 2 mins

The next assay deals with Bacillus subtilis. The assay is described as follows: Antibacterial activity against Bacillus subtilis at 200 ug/disk after 24 hrs by disk diffusion method. Type of assay: functional.
Assay [2] concerns Candida albicans. The assay is described as follows: Antifungal activity against Candida albicans after 48 hrs by microdilution susceptibility method. Type of assay: functional, organism-based. (In general: Broth dilution looks for growth in wells or tubes with falling amounts of substance.)
A further assay concerns Pseudomonas aeruginosa. Briefly: Antibacterial activity against Pseudomonas aeruginosa at 200 ug/disk after 24 hrs by disk diffusion method. Type of assay: functional.
The subject of a further assay is Micrococcus luteus. Briefly: Antibacterial activity against Micrococcus luteus at 200 ug/disk after 24 hrs by disk diffusion method. Type of assay: functional.
For the next assay, the system named is Escherichia coli. The assay is described as follows: Antibacterial activity against Escherichia coli at 200 ug/disk after 24 hrs by disk diffusion method. As to conditions: for zone of inhibition at 200 µg/disc: read-out: DIZ. The class given is functional.
Assay [3] has as its system Candida albicans. The assay is described as follows: Antifungal activity against Candida albicans at 200 ug/disk after 48 hrs by disk diffusion method. The class given is functional, organism-based.
The target in assay [4] is T2, Dihydrofolate reductase (Bos taurus, UniProt P00376).
T2 sequence (P00376 whole entry): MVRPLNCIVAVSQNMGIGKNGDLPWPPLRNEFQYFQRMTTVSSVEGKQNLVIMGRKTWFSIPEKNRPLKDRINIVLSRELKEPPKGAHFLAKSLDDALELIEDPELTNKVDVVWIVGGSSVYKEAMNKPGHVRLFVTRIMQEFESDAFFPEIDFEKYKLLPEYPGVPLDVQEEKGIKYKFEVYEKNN
Description: Inhibition of bovine DHFR after 2 mins

As usually defined, the IC50 is the point on the concentration scale where inhibition reaches its midpoint. Read a high IC50 as weaker potency in that assay. On to `C=CCSc1nc2ccc([N+](=O)[O-])cc2c(=O)n1Cc1ccccc1`, for which the “diameter of the inhibition zone (DIZ)” value in the assay on Staphylococcus aureus, in the assay on Bacillus subtilis, with Pseudomonas aeruginosa, in the assay with Micrococcus luteus and in the assay with Escherichia coli was “inactive” each time. The figures for the IC50 against Dihydrofolate reductase [1] and against Dihydrofolate reductase [4] were 2000 nM and 3 µM, respectively. In addition, the outcome in the assay on Candida albicans [2] and in the assay on Candida albicans [3] was inactive.

Consider `CSc1nc2ccc(N)cc2c(=O)n1Cc1ccccc1`, for which the “diameter of the inhibition zone (DIZ)” value in the assay on Staphylococcus aureus, in the assay with Bacillus subtilis, with Pseudomonas aeruginosa, in the assay with Micrococcus luteus and in the assay with Escherichia coli was “inactive” throughout. Moreover, the result in the assay on Candida albicans [2] and in the assay with Candida albicans [3] was inactive. Moreover, the 50% inhibitory concentration (IC50) at Dihydrofolate reductase [4] is 10 µM.

Take `O=c1c2cc([N+](=O)[O-])ccc2nc(SCc2ccccc2)n1Cc1ccccc1`: the “diameter of the inhibition zone (DIZ)” value in the assay with Staphylococcus aureus, with Bacillus subtilis, with Pseudomonas aeruginosa, with Micrococcus luteus and in the assay on Escherichia coli was “inactive” throughout. Further, the result in the assay with Candida albicans [2] and with Candida albicans [3] was inactive. On Dihydrofolate reductase [4], this compound registered an IC50 of 30 µM.

Regarding `C=CCSc1nc2ccc(N(CC=C)CC=C)cc2c(=O)n1Cc1ccccc1`, the “diameter of the inhibition zone (DIZ)” value in the assay with Staphylococcus aureus, in the assay on Bacillus subtilis, in the assay on Pseudomonas aeruginosa, in the assay with Micrococcus luteus and in the assay on Escherichia coli was “inactive” in each case. Further, the figures for the IC50 at Dihydrofolate reductase [1] and against Dihydrofolate reductase [4] were 900 nM and 0.4 µM, respectively. Besides, the outcome in the assay on Candida albicans [2] and in the assay on Candida albicans [3] was inactive.

Consider `C=CC(=O)Nc1ccc2nc(SC/C=C/c3ccccc3)n(Cc3ccccc3)c(=O)c2c1`, for which the zone of inhibition at 200 µg/disc in the assay on Staphylococcus aureus (read-out: DIZ) amounted to 15 mm. In addition, the IC50 on Dihydrofolate reductase [1] is 2000 nM; against Dihydrofolate reductase [4] it was 1 µM. For the same compound, the “diameter of the inhibition zone (DIZ)” value with Bacillus subtilis, in the assay with Pseudomonas aeruginosa, with Micrococcus luteus and with Escherichia coli was “inactive” throughout. The result in the assay with Candida albicans [2] and in the assay with Candida albicans [3] was inactive.

In the case of `CSc1nc2ccc(NC/C=C/c3ccccc3)cc2c(=O)n1Cc1ccccc1`, the “diameter of the inhibition zone (DIZ)” value in the assay on Staphylococcus aureus, with Bacillus subtilis, with Pseudomonas aeruginosa and in the assay on Micrococcus luteus was “inactive” each time. Moreover, the IC50 against Dihydrofolate reductase [1] was 2000 nM; against Dihydrofolate reductase [4], 0.5 µM. Moreover, the result in the assay on Candida albicans [2] and in the assay with Candida albicans [3] was inactive. Also, the zone of inhibition at 200 µg/disc in the assay with Escherichia coli was 15 mm.

Regarding `CSc1nc2ccc([N+](=O)[O-])cc2c(=O)n1Cc1ccccc1`, the “diameter of the inhibition zone (DIZ)” value in the assay on Staphylococcus aureus, with Bacillus subtilis, in the assay on Pseudomonas aeruginosa, in the assay with Micrococcus luteus and in the assay with Escherichia coli was “inactive” throughout. The outcome in the assay with Candida albicans [2] and in the assay with Candida albicans [3] was inactive. Also, the IC50 on Dihydrofolate reductase [4] is 30 µM.

On to `CCOC(=O)CCSc1nc2ccc([N+](=O)[O-])cc2c(=O)n1Cc1ccccc1`, for which the “diameter of the inhibition zone (DIZ)” value in the assay with Staphylococcus aureus and in the assay with Micrococcus luteus was “inactive” each time. Further, the zone of inhibition at 200 µg/disc with Bacillus subtilis (read-out: DIZ) came out at 14 mm; in the assay with Pseudomonas aeruginosa (read-out: DIZ), 16 mm; with Escherichia coli, 16 mm. The outcome with Candida albicans [2] and in the assay on Candida albicans [3] was inactive. The same compound registered an IC50 against Dihydrofolate reductase [4] of 25 µM.

Regarding `C=CCSc1nc2ccc(NC(=O)C=C)cc2c(=O)n1Cc1ccccc1`, the “diameter of the inhibition zone (DIZ)” value in the assay with Staphylococcus aureus, in the assay with Bacillus subtilis, in the assay on Pseudomonas aeruginosa, in the assay on Micrococcus luteus and in the assay on Escherichia coli was “inactive” throughout. Also, the result in the assay on Candida albicans [2] and with Candida albicans [3] was inactive. The compound also had a half-maximal inhibitory concentration (IC50) against Dihydrofolate reductase [4] of 10 µM.

For the compound `Cc1ccc2nc(SCc3ccccc3)n(Cc3ccccc3)c(=O)c2c1`, the “diameter of the inhibition zone (DIZ)” value in the assay on Staphylococcus aureus, with Bacillus subtilis, in the assay with Pseudomonas aeruginosa, with Micrococcus luteus and in the assay on Escherichia coli was “inactive” in each case. For the same compound, the outcome in the assay with Candida albicans [2] and in the assay with Candida albicans [3] was inactive. Moreover, half-maximal inhibition against Dihydrofolate reductase [4] (IC50) required 10 µM.

Turning to `CSc1nc2ccc(C)cc2c(=O)n1Cc1ccccc1`, the “diameter of the inhibition zone (DIZ)” value in the assay on Staphylococcus aureus, with Bacillus subtilis, with Pseudomonas aeruginosa, in the assay with Micrococcus luteus and in the assay with Escherichia coli was “inactive” each time. The result in the assay with Candida albicans [2] and with Candida albicans [3] was inactive. The compound also showed a half-maximal inhibitory concentration (IC50) on Dihydrofolate reductase [4] of 20 µM.

For the compound `C=CC(=O)Nc1ccc2nc(SC)n(Cc3ccccc3)c(=O)c2c1`, the “diameter of the inhibition zone (DIZ)” value in the assay with Staphylococcus aureus, with Bacillus subtilis, in the assay on Pseudomonas aeruginosa, in the assay on Micrococcus luteus and in the assay on Escherichia coli was “inactive” in each case. The outcome in the assay with Candida albicans [2] and in the assay on Candida albicans [3] was inactive. This compound registered a concentration for half-maximal inhibition (IC50) against Dihydrofolate reductase [4] of 50 µM.

On to `CCSc1nc2ccc(C)cc2c(=O)n1Cc1ccccc1`, for which the “diameter of the inhibition zone (DIZ)” value in the assay on Staphylococcus aureus, in the assay with Bacillus subtilis, with Pseudomonas aeruginosa, in the assay with Micrococcus luteus and in the assay on Escherichia coli was “inactive” in each case. For the same compound, the result in the assay with Candida albicans [2] and in the assay on Candida albicans [3] was inactive. At Dihydrofolate reductase [4], this compound showed an IC50 of 35 µM.

For the compound `C=CCn1c(SSc2nc(=O)c3cc([N+](=O)[O-])ccc3n2CC=C)nc(=O)c2cc([N+](=O)[O-])ccc21`, the “diameter of the inhibition zone (DIZ)” value in the assay on Staphylococcus aureus, in the assay on Bacillus subtilis, in the assay on Pseudomonas aeruginosa, with Micrococcus luteus and in the assay on Escherichia coli was “inactive” each time. The result in the assay with Candida albicans [2] and in the assay on Candida albicans [3] was inactive. This compound also came in with a 50% inhibitory concentration (IC50) at Dihydrofolate reductase [4] of 10 µM.
